Assay results: paper PMC5953424 (Nature chemical biology, 2014)
pIC50: −log10 of the molar value.

Assays:
[1] = Oral glucose tolerance test; type: in vivo, C57BL/6 mice; conditions: mice, oral gavage 1 h before dextrose 5 g/kg; listed as ARI-2243
Adverse effects in mice = type: in vivo
PME1 = biological target: T1, PME1 (Homo sapiens, UniProt Q9Y570); assay: EnPlex assay; type: biochemical; conditions: FP-biotin 1 μM, <5 = >50% inhibition at lowest dose 5 nM
T1 sequence (Q9Y570 1-386): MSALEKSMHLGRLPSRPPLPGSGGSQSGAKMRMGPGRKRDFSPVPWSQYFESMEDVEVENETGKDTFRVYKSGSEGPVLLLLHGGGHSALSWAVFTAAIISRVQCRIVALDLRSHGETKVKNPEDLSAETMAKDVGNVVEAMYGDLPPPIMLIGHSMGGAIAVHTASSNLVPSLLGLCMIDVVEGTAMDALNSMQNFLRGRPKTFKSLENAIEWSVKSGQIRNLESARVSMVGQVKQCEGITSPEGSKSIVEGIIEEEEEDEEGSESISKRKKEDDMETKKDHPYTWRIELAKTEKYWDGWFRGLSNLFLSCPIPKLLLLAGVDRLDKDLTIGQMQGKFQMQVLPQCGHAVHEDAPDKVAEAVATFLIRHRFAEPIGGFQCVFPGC

Row | Structure (SMILES) | Anti-hyperglycemic activity in oral glucose tolerance test [1] | Adverse effects in mice (Adverse effects in mice) | pIC50 (PME1)
1 | CC(N)C(=S)N1CCCC1B(O)O (stereo not drawn) [Compound 24, Ala-boroPro thioxoamide] | highly effective and essentially equal anti-hyperglycemic glycemic activity | no significant adverse effects | –
2 | COC(=O)N1C(=O)[C@](c2ccccc2)(C2CCCC2)N1C(=O)OC [ABL127] | – | – | 7.92
